This note sets out measurements from US4421912A, “Cephalosporin derivatives” (Takeda Chemical Industries, Ltd., priority 1973, dated 1983).

The subject of one assay is E. coli 0-111. The assay is described as follows: Antibacterial spectra, agar dilution method. The assay is classed as cell-based.
Excerpt: (§1) (mcg/ml., agar dilution method)
as §1
(§2) (mcg/ml, agar dilution method)
(§3) (mcg./ml., agar dilution method)
(In general: Agar dilution tests growth on a series of plates holding different concentrations.)

For a further assay, the system named is S. aureus 1840. The experiment in a line: Antibacterial spectra, agar dilution method. The class given is cell-based.
Excerpt: as §1, §1, §2, §3

The test system of another assay is S. aureus 209P. The assay is described as follows: Antibacterial spectra, agar dilution method. The class given is cell-based. The settings on record: Staphylococcus aureus, 209P.
Excerpt: as §1, §1, §2, §3

For the next assay, the system named is K. pneumoniae DT. The experiment in a line: Antibacterial spectra, agar dilution method. The assay is classed as cell-based. The settings on record: Klebsiella pneumoniae.
Another assay deals with P. vulgaris Eb-58. The assay is described as follows: Antibacterial spectra, agar dilution method. The assay is classed as cell-based. The settings on record: Proteus vulgaris, EB58, tables in Examples 13 and 16.
Excerpt: as §1, §2

In a further assay the test system is Escherichia coli 0111. The experiment in a line: Protective Effect on Infected Mice. The assay is classed as in vivo. Particulars: Escherichia coli, 0111, sc, 168 h, male ICR/SLC mice, i.p. E. coli 0111, single subcutaneous dose immediately after challenge, 7 days, read-out: ED50. The source says:
Protective Effect (ED50 * , mg/kg) on Infected Mice
*Test animals: male mice (ICR/SLC) 5 mice per group per single dose
Infection: intraperitoneally with Escherichia coli 0111
Administration: a single subcutaneous dose immediately after challenge
Observation period: 7 days
*Test animals: male mice (ICR/SLC) 5 mice per group single dose

The next assay relates to E. coli NIHJ JC-2. The assay is described as follows: Antibacterial spectra, agar dilution method. The settings on record: Escherichia coli. The assay is classed as cell-based.
Excerpt: as §1, §1, §2, §3

The next assay has as its system P. vulgaris Eb-57. The experiment in a line: Antibacterial spectra, agar dilution method. The assay is classed as cell-based. The settings on record: Proteus vulgaris, EB57, read-out: Antibacterial spectra. The source says: |(mcg/ml., agar dilution method)
In another assay the test system is E. coli T-7. The experiment in a line: Antibacterial spectra, agar dilution method. The class given is cell-based. The settings on record: Escherichia coli. The source says: (§4) |(mcg./ml., agar dilution method)
Another assay concerns P. morganii Eb53. The experiment in a line: Antibacterial spectra, agar dilution method. The assay is classed as cell-based. The settings on record: Morganella morganii.
Excerpt: as §2, §3

In another assay the test system is P. vulgaris IFO 3988. The assay is described as follows: Antibacterial spectra, agar dilution method. The settings on record: Proteus vulgaris, IFO3988; P. vulgaris IFO 3988; agar dilution method; Table 11; read-out: Antibacterial spectra. The assay is classed as cell-based.
Excerpt: as §4

Setting [1] is: Staphylococcus aureus, 1840, read-out: Antibacterial spectra, S. aureus 1840, tables in the Examples.
Setting [2] is: read-out: Antibacterial spectra, S. aureus 209P, tables in the Examples.
Where [3] appears, read: Escherichia coli, 0111, E. coli 0-111, Table 11.
Where [4] appears, read: NIHJJC2, read-out: Antibacterial spectra, E. coli NIHJ JC-2, Table 11.
Where [5] appears, read: Staphylococcus aureus, 1840, read-out: Antibacterial spectra, S. aureus 1840, Table 11.
The mark [6] stands for this setting: read-out: Antibacterial spectra, S. aureus 209P, Table 11.
Setting [7] is: T7, E. coli T-7, agar dilution method, Table 11, read-out: Antibacterial spectra.
[8] abbreviates: P. morganii Eb53, agar dilution method, Table 11, read-out: Antibacterial spectra.
Setting [9] is: EB53, read-out: Antibacterial spectra.

≈ marks a conversion by molar mass, not a printed value. Read-outs that look alike come from different tables or passages of the source.

For orientation: ED50 means the dose that gives a 50% effect, or the effect in half of the subjects. With `Nc1nc(CC(=O)NC2C(=O)N3C(C(=O)O)=C(CSc4nncs4)CSC23)cs1` (stereo not drawn) [Example 13, sodium 7-[2-(2-aminothiazol-4-yl)-acetamido]-3-(1,3,4-thiadiazol-2-yl)thiomethyl-3-cephem-4-carboxylate], the MIC is below 0.78 µg/mL against E. coli 0-111 (Escherichia coli, 0111, E. coli 0-111, tables in the Examples); below 0.78 µg/mL with S. aureus 1840 (setting [1]); below 0.78 µg/mL in the assay with S. aureus 209P (setting [2]); below 0.78 µg/mL against K. pneumoniae DT (tables in the Examples); below 0.78 µg/mL in the assay on P. vulgaris Eb-58. Also, the ED50 in the assay with Escherichia coli 0111 (Table 14) was found to be 2.38 mg/kg.
Regarding `CC(=O)OCC1=C(C(=O)O)N2C(=O)C(NC(=O)Cc3csc(N)n3)C2SC1` (stereo not drawn) [Example 10, sodium 7-[2-(2-aminothiazol-4-yl)acetamido]-3-acetoxymethyl-3-cephem-4-carboxylat], the MIC with E. coli NIHJ JC-2 (NIHJJC2, E. coli NIHJ JC-2, tables in the Examples, read-out: Antibacterial spectra) was 1.56 µg/mL; in the assay with S. aureus 1840 (setting [1]), 1.56 µg/mL; with S. aureus 209P (setting [2]), below 0.78 µg/mL; against K. pneumoniae DT (tables in the Examples) it was below 0.78 µg/mL; in the assay on P. vulgaris Eb-57 it was below 0.78 µg/mL.
Take `Cn1cnnc1SCC1=C(C(=O)O)N2C(=O)C(NC(=O)Cc3csc(N)n3)C2SC1` (stereo not drawn) [Compound 39]: the MIC with E. coli 0-111 (setting [3]) was below 0.05 µg/mL; with E. coli NIHJ JC-2 (setting [4]), 0.2 µg/mL (≈ 0.428 µM); with S. aureus 1840 (setting [5]) it was 1.56 µg/mL (≈ 3.34 µM); in the assay with S. aureus 209P (setting [6]), 0.78 µg/mL (≈ 1.67 µM); in the assay on E. coli T-7 (setting [7]), 25 µg/mL (≈ 53.5 µM); against K. pneumoniae DT (Table 11), 0.1 µg/mL (≈ 0.214 µM). The MIC in the assay with P. morganii Eb53 (setting [8]) was 25 µg/mL (≈ 53.5 µM). For the same compound, in the assay with Escherichia coli 0111 (Table 14), the ED50 worked out at 0.73 mg/kg.
`Cc1nnc(SCC2=C(C(=O)O)N3C(=O)C(NC(=O)Cc4csc(N)n4)C3SC2)n1C` (stereo not drawn) [Compound 42]: the MIC in the assay on E. coli 0-111 (setting [3]) is 0.1 µg/mL (≈ 0.208 µM); in the assay on E. coli NIHJ JC-2 (setting [4]), 0.2 µg/mL (≈ 0.415 µM); in the assay with S. aureus 1840 (setting [5]) it was 1.56 µg/mL (≈ 3.24 µM); in the assay on S. aureus 209P (setting [6]) it was 0.39 µg/mL (≈ 0.81 µM); with K. pneumoniae DT (Table 11), 0.1 µg/mL (≈ 0.208 µM); with P. morganii Eb53 (setting [9]) it was 1.56 µg/mL (≈ 3.24 µM). Besides, in the assay with Escherichia coli 0111 (Table 14), the ED50 was 0.38 mg/kg.
In the case of `NC(=O)CSc1nnc(SCC2=C(C(=O)[O-])N3C(=O)C(NC(=O)Cc4csc(N)n4)[C@H]3SC2)s1.[Na+]` (stereo partly drawn) [Compound 16, sodium 7-[2-(2-aminothiazol-4-yl)acetamido]-3-(2-carbamoylmethylthio-1,3,4-thiadiazol-5-yl)thiomethyl-3-cephem-4-carboxylate], the MIC is at most 0.2 µg/mL against E. coli 0-111 (setting [3]); 0.39 µg/mL in the assay with E. coli NIHJ JC-2 (setting [4]); 0.78 µg/mL in the assay with S. aureus 1840 (setting [5]); at most 0.2 µg/mL with S. aureus 209P (setting [6]); 12.5 µg/mL with E. coli T-7 (T7, read-out: Antibacterial spectra); at most 0.2 µg/mL with P. vulgaris IFO 3988. The MIC with K. pneumoniae DT (Table 11) is at most 0.2 µg/mL; in the assay on P. morganii Eb53 (setting [9]) it was 1.56 µg/mL. The ED50 in the assay with Escherichia coli 0111 (Table 13) is below 0.625 mg/kg.
Take `Nc1nc(CC(=O)NC2C(=O)N3C(C(=O)O)=C(CSc4nnc(SCCS(=O)(=O)O)s4)CSC23)cs1` (stereo not drawn) [Compound 12]: the MIC against E. coli 0-111 (setting [3]) was at most 0.2 µg/mL; in the assay on E. coli NIHJ JC-2 (setting [4]), 0.78 µg/mL (≈ 1.28 µM); with S. aureus 1840 (setting [5]), 1.56 µg/mL (≈ 2.55 µM); in the assay with S. aureus 209P (setting [6]), 0.39 µg/mL (≈ 0.639 µM); in the assay with E. coli T-7 (setting [7]) it was 50 µg/mL (≈ 81.9 µM); with P. vulgaris IFO 3988 it was at most 0.2 µg/mL. Further, the MIC against K. pneumoniae DT (Table 11) was at most 0.2 µg/mL; in the assay on P. morganii Eb53 (setting [8]), 25 µg/mL (≈ 40.9 µM). Besides, the median effective dose (ED50) with Escherichia coli 0111 (Table 13) is below 0.625 mg/kg.
In the case of `CN(C)CC(=O)Nc1nnc(SCC2=C(C(=O)O)N3C(=O)C(NC(=O)Cc4csc(N)n4)C3SC2)s1` (stereo not drawn) [Compound 7], the MIC was at most 0.2 µg/mL in the assay with E. coli 0-111 (setting [3]); 0.78 µg/mL (≈ 1.37 µM) in the assay with E. coli NIHJ JC-2 (setting [4]); 3.13 µg/mL (≈ 5.48 µM) in the assay with S. aureus 1840 (Staphylococcus aureus, S. aureus 1840, Table 11, read-out: Antibacterial spectra); 0.78 µg/mL (≈ 1.37 µM) in the assay on S. aureus 209P (setting [6]); 25 µg/mL (≈ 43.8 µM) with E. coli T-7 (setting [7]); 0.39 µg/mL (≈ 0.683 µM) with P. vulgaris IFO 3988. In addition, the MIC is at most 0.2 µg/mL in the assay on K. pneumoniae DT (Table 11) and 12.5 µg/mL (≈ 21.9 µM) in the assay with P. morganii Eb53 (setting [9]).
On to `CS(=O)(=O)Cc1nnc(SCC2=C(C(=O)O)N3C(=O)C(NC(=O)Cc4csc(N)n4)C3SC2)s1` (stereo not drawn) [Compound 25], for which the MIC was at most 0.2 µg/mL in the assay with E. coli 0-111 (setting [3]); 0.39 µg/mL (≈ 0.693 µM) in the assay on E. coli NIHJ JC-2 (setting [4]); 0.78 µg/mL (≈ 1.39 µM) in the assay on S. aureus 1840 (setting [5]); 0.39 µg/mL (≈ 0.693 µM) in the assay on S. aureus 209P (setting [6]); 100 µg/mL (≈ 178 µM) with E. coli T-7 (setting [7]); 0.39 µg/mL (≈ 0.693 µM) in the assay with P. vulgaris IFO 3988. For the same compound, the MIC was at most 0.2 µg/mL in the assay with K. pneumoniae DT (Table 11) and 25 µg/mL (≈ 44.4 µM) in the assay on P. morganii Eb53 (setting [8]).
